The subject of data set [1] is RET mutant TT, MZ-CRC-1, TPC-1, and Lc-2/ad human cancer cells. The data set is described as follows: Cell growth curves, RET mutant human cancer cells taken together. Type of data set: cell-based. The note with it: range over TT, MZ-CRC-1, TPC-1, Lc-2/ad, read-out: IC50, proliferation of RET mutant human cancer cells. The method, then: The IC50 dose for all human RET-negative cells was >100.0 nM, confirming compound selectivity (Figure S8 and Table S4).
Nthy-ory-3-1 (10000 per well), TPC-1 (10000 per well), MZ-CRC-1 (100000 per well), TT (200000 per well), Lc-2/ad (100000 per well), BCPAP (10000 per well), 8505-C (10000 per well), PC-9 (10000 per well), A549 (10000 per well), CALU-1 (10000 per well), NIH3T3 RET/C634Y (10000 per well), and NIH3T3 HRAS/G12V (10000 per well) were seeded in six-well tissue culture plates. Cells were kept in 2% (TPC-1), 5% (Nthy-ori-3-1), or 10% (BCPAP, 8505-C, CALU-1, A549, PC-9, TT, MZ-CRC-1, and Lc-2/ad) fetal calf serum or in 2% (NIH3T3 RET/C634Y and HRAS/G12V) calf serum. Ba/F3 cells (200000 per well in 2 mL) were seeded in six-well tissue culture plates and kept in 10% fetal calf serum. The day after plating, different concentrations of the drug or vehicle were added to the medium and changed every 2–3 days. Cells were counted every day (Ba/F3), every 2 days (fibroblasts), or every 2–3 days (human cell lines). To compare cell growth, we performed an unpaired Student’s t test using the Instat software program (Graphpad Software Inc.). […] IC50 doses were calculated through a curve fitting analysis from last day of growth curves using the PRISM software program (Graphpad Software Inc.).

Data set [2] is described as follows: LCMS plasma analysis (in vivo metabolism study). Also noted: species or system mouse. The note with it: 10 mg/kg oral, mice, 1 h and 4 h after dosing, LC-MS. The method, then: In vivo target (RET and VEGFR2) inhibition was studied by treating animals grafted with NIH3T3 RET/C634Y cells at different doses (0.3, 1, or 3 mg/kg/day p.o.) of NPA101.3 for 2 days and then performing Western blot analysis on protein extracts. […] Then, to determine antitumorigenic activity and to better distinguish RET- and VEGFR2-mediated effects, we tested NPA101.3 in nude mice transplanted with NIH3T3 cells transformed by either RET/C634Y or HRAS/G12V. Before tumors appeared, animals were treated daily with NPA101.3 (1.0, 3.0, or 10.0 mg/kg/day) or left untreated. […] Still, VEGFR2 inhibition was detected also in RAS-driven tumors, an effect that might explain the, albeit reduced, effect of the drug on their growth (Figure S13). Importantly, as predicted, no trace of NPA101.3 demethyl metabolites was detected after 1 or 4 h from oral dosing in mice (Figure S14). […]
After thawing, cells were maintained in culture using minimum essential medium supplemented with 10% foetal bovine serum, 1% non-essential amino acids, 1% sodium pyruvate, 2mM L-glutamine, 1% pen-strep, 15μg/ml blasticidin and 100 μg/ml hygromycin. hERG channel expression induction was obtained by adding 10 μg/ml tetracycline 48 h before the experiment. […] Current amplitude was measured and […]
Supplementary Figure S14: In vivo metabolism study. […] NPA101.3 drug peak was detected at 3.61 min (m/z = 529) at either time point. […]

Turning to `CC(C)(C)c1cc(NC(=O)Cc2ccc(-n3cnc4cc(-c5ccc(S(C)(=O)=O)cc5)ccc43)cc2)no1` [NPA101.3], the IC50 in data set [1] was 0.67 to 3.6 nM. Besides, in data set [2], the “demethyl metabolites in plasma” value is on record as “no trace”.

Source of the values: article PMC7901654, “Bioisosteric Discovery of NPA101.3, a Second-Generation RET/VEGFR2 Inhibitor Optimized for Single-Agent Polypharmacology” (Journal of Medicinal Chemistry, 2020).
